Literature values in patent US12440482B2, “1,4-dihydropyridine compositions, methods of making and use” (American Regent, Inc., priority 2019, dated 2025).

solubility in water: only slightly soluble
Structure (SMILES): COC(=O)C1=C(C)NC(C)=C(C(=O)OCCN(C)Cc2ccccc2)C1c1cccc([N+](=O)[O-])c1 (stereo not shown) [nicardipine]
